This passage reports EC50 results from patent EP0471841A1, “SULFONAMIDE DERIVATIVE AND PHARMACEUTICAL COMPOSITION CONTAINING THE SAME” (Asahi Kasei Kogyo Kabushiki Kaisha, priority 1990, dated 1991).

This experiment deals with tracheal specimens excised from guinea pigs. In words: Inhibitory effect on KCl-induced contraction of tracheal specimens excised from guinea pigs (Magnus tube). In kind it is cell-based. Particulars: dose required for relaxing KCl-induced contraction to 50 %, final KCl concentration: 20 mM, 37 °C, compounds other than acid addition salts used as hydrochloride, 3 specimens per group, read-out: ED₅₀ Effect on KCl-induced contraction. The method, then:
The bronchial smooth muscle-relaxing action of the sulfonamide derivative of the present invention was evaluated by the effect on suppression of KCl-induced contraction and PGF2α-induced contraction of bronchial specimens excised from guinea pigs.
According to a method in which tracheal specimens excised from guinea pigs were used (Takagi and Ozawa, "Yakubutsugaku Jikken (Experiments in Pharmacology)", pp.100-102, 1960, published by Nanzando Japan; and Fujiwara and Shibata, "Yakurigaku Kiso Jikenho (Methods of Fundamental Experiments in Pharmacology)" pp.131-134, 1982, published by Kyourin, Japan), relaxing effect of sulfonamide derivatives of the present invention on bronchial smooth muscle was examined. Of compounds (1) to (69) shown herein, compounds other than acid addition salts were individually used in the form of a hydrochloride which was obtained by the same method as described in Example 61.
From male guinea pigs weighing 350 to 500 g (Hartley strain, Kuroda Junkei Dobutsu), tracheas were excised and each of the excised tracheal specimens was hung in 20 ml of a Magnus tube filled with Krebs-Henseleit solution under isotonic conditions and the solution temperature was kept at 37 °C. An aqueous KCl solution was dropwise added into the Magnus tube (final KCl concentration: 20 mM) to contract the tracheal specimen. After the KCl-induced contraction became stable, each of the compounds of the present invention was dissolved in distilled water or physiological saline, and the compound solution was cumulatively added into the Magnus tube. The relaxing effect of each of the compounds of the present invention on contracted tracheal specimens was evaluated and a dose-response curve was obtained.
A dose required for relaxing KCl-induced contraction to 50 %, i.e., ED₅₀ was calculated from the dose-response curve. For comparison, the same method as described above was repeated except that aminophylline was used, to thereby determine an ED₅₀. The number of tracheal specimens in each group was 3.

Where a name gives a salt, the structure may show the parent alone. Read-outs that look alike come from different tables or passages of the source.

For the compound `O=S(=O)(NCCN1CCN(Cc2ccc3c(c2)OCO3)CC1)c1ccc(Cl)c2ncccc12` [(39), 1-(8-chloro-5-quinolinesulfonylaminoethyl)-4-(3,4-methylenedioxybenzyl)piperazine], the EC50 (Cavia porcellus) came out at 31 µM. For the compound `COc1ccc(CCNC(C)CNS(=O)(=O)c2ccc(Cl)c3ncccc23)cc1OC` (centres unmarked) [(60), N-[2-(3,4-dimethoxyphenethylamino)-2-methylethyl]-8-chloro-5-quinolinesulfonamide], the EC50 (Cavia porcellus) is 110 µM. For `CCOc1ccc(S(=O)(=O)NCCN2CCNCC2)c2cccnc12` [(47), 1-(8-ethoxy-5-quinolinesulfonylaminoethyl) piperazine], the EC50 (Cavia porcellus) was found to be 60 µM. Still for that read-out and setting: as for `O=S(=O)(NCCNCCc1ccccc1)c1ccc(Cl)c2ncccc12` [(15)], the figure is 110 µM; as for `CCOc1ccc(S(=O)(=O)NCCNCCc2ccc3c(c2)OCO3)c2cccnc12` [(20), N-[2-(3,4-methylenedioxyphenethylamino)ethyl]-8-ethoxy-5-quinolinesulfonamide], 38 µM; as for `CCOc1ccc(S(=O)(=O)NCCN2CCN(CCc3ccc(OC)c(OC)c3)CC2)c2cccnc12` [(53), 1-(8-ethoxy-5-quinolinesulfonylaminoethyl)-4-(3,4-dimethoxyphenethyl)piperazine], 120 µM.

Turning to `O=S(=O)(NCCN1CCN(Cc2ccc3c(c2)OCO3)CC1)c1cccc2c(O)nccc12` [(34), 1-(1-hydroxy-5-isoquinolinesulfonylaminoethyl)-4-(3,4-methylenedioxybenzyl)piperazine hydrochloride], the EC50 (Cavia porcellus) came out at 19 µM.

Take `O=S(=O)(NCCNCc1ccccc1)c1ccc(Cl)c2ncccc12` [(14)]: the EC50 (Cavia porcellus) was determined as 97 µM.

For the compound `O=S(=O)(NCCN1CCCN(Cc2ccc3c(c2)OCO3)CC1)c1cccc2ncccc12` [(45), 1-(5-quinolinesulfonylaminoethyl)-4-(3,4-methylenedioxybenzyl)homopiperazine], the EC50 (Cavia porcellus) was 84 µM.

In the case of `CCOc1ccc(S(=O)(=O)NCCN2CCN(Cc3ccc(Cl)cc3)CC2)c2cccnc12` [(51), 1-(8-ethoxy-5-quinolinesulfonylaminoethyl)-4-(4-chlorobenzyl)piperazine], the EC50 (Cavia porcellus) was 85 µM. Same read-out and setting: as for `COc1ccc(CCNCCNS(=O)(=O)c2ccc(Cl)c3ncccc23)cc1OC` [(8), N-[2-(3,4-dimethoxyphenethylamino)ethyl]-8-chloro-5-quinolinesulfonamide], the figure is 120 µM; as for `O=S(=O)(NCCN1CCN(Cc2ccc(Cl)cc2)CC1)c1ccc(Cl)c2ncccc12` [(41), 1-(8-chloro-5-quinolinesulfonylaminoethyl)-4-(4-chlorobenzyl)piperazine], 78 µM; as for `O=S(=O)(c1ccc(Cl)c2ncccc12)N1CCNCC1` [(56), 1-(8-chloro-5-quinolinesulfonyl)piperazine], 49 µM. On the same count and under the same terms, with `O=S(=O)(NCCN1CCCNCC1)c1cccc2cnccc12` [(29), 1-(5-isoquinolinesulfonylaminoethyl)homopiperazine] the figure was 22 µM; with `O=S(=O)(NCCNCc1ccc2c(c1)OCO2)c1cccc2ncccc12` [Compound (27), N-[2-(3,4-methylenedioxybenzylamino)ethyl]-5-quinolinesulfonamide], 86 µM; with `O=S(=O)(c1cccc2ncccc12)N1CCCNCC1` [(58), 1-(5-quinolinesulfonyl)homopiperazine], 79 µM.

Turning to `CCOc1ccc(S(=O)(=O)NCCNCCc2ccc(OC)cc2)c2cccnc12` [(16), N-[2-(4-methoxyphenethylamino)ethyl]-8-ethoxy-5-quinolinesulfonamide], the EC50 (Cavia porcellus) was 35 µM. With `O=S(=O)(NCCN1CCCNCC1)c1cccc2ncccc12` [(44), 1-(5-quinolinesulfonylaminoethyl)homopiperazine], the EC50 (Cavia porcellus) worked out at 91 µM. In the case of “1-(1-hydroxy-5-isoquinolinesulfonylaminoethyl) homopiperazine hydrochloride [(33)]”, the EC50 was found to be 24 µM.

As to `O=S(=O)(NCCNCc1ccc2c(c1)OCO2)c1ccc(Cl)c2ncccc12` [(13), N-[2-(3,4-methylenedioxybenzylamino)ethyl]-8-chloro-5-quinolinesulfonamide], where the note is “Cavia porcellus”, the EC50 is 28 µM. Turning to `CCOc1ccc(S(=O)(=O)NCCN2CCN(Cc3ccc4c(c3)OCO4)CC2)c2cccnc12` [(49), 1-(8-ethoxy-5-quinolinesulfonylaminoethyl)-4-(3,4-methylenedioxybenzyl)piperazine], the EC50 (Cavia porcellus) came to 46 µM. On the same count and under the same terms, as for `CCOc1ccc(S(=O)(=O)NCCNCCc2ccc(C(F)(F)F)cc2)c2cccnc12` [(18), N-[2-(4-trifluoromethylphenethylamino)ethyl]-8-ethoxy-5-quinolinesulfonamide], the figure is 75 µM; as for `CCOc1ccc(S(=O)(=O)NCCN2CCCNCC2)c2cccnc12` [Compound (46), 1-(8-ethoxy-5-quinolinesulfonylaminoethyl) homopiperazine], 51 µM. Take “1-(1-hydroxy-5-isoquinolinesulfonylaminoethyl)-3-(3,4-methylenedioxybenzyl)homopiperazine hydrochloride [(35)]”: the EC50 came out at 18 µM. As to `COc1ccc(CNCCNS(=O)(=O)c2ccc(Cl)c3ncccc23)cc1` [(11), N-[2-(4-methoxybenzylamino)ethyl]-8-chloro-5-quinolinesulfonamide], where the note is “Cavia porcellus”, the EC50 is 125 µM. Still for that read-out and setting: with `O=S(=O)(NCCNCCc1ccc(C(F)(F)F)cc1)c1ccc(Cl)c2ncccc12` [(7), N-[2-(4-trifluoromethylphenethylamino)ethyl]-8-chloro-5-quinolinesulfonamide] the figure was 70 µM; with `CCOc1ccc(S(=O)(=O)NCCNCc2ccc3c(c2)OCO3)c2cccnc12` [(24), N-[2-(3,4-methylenedioxybenzylamino)ethyl]-8-ethoxy-5-quinolinesulfonamide], 31 µM; with `CCOc1ccc(S(=O)(=O)NCCNCc2cccc(Cl)c2)c2cccnc12` [(21), N-[2-(3-chlorobenzylamino)ethyl]-8-ethoxy-5-quinolinesulfonamide], 128 µM. As for `CCOc1ccc(S(=O)(=O)NCCNCCc2ccccc2)c2cccnc12` [(26), N-(2-phenethylaminoethyl)-8-ethoxy-5-quinolinesulfonamide], the EC50 (Cavia porcellus) is 112 µM. Still for that read-out and setting: with `CCOc1ccc(S(=O)(=O)NCCNCCc2ccc(Cl)cc2)c2cccnc12` [(17), N-[2-(4-chlorophenethylamino)ethyl]-8-ethoxy-5-quinolinesulfonamide] the figure was 71 µM.

As to `COc1ccc(CNCCNS(=O)(=O)c2ccc(Cl)c3ncccc23)cc1OC` [(12), N-[2-(3,4-dimethoxybenzylamino)ethyl]-8-chloro-5-quinolinesulfonamide], the EC50 (Cavia porcellus) is 160 µM. Take `O=S(=O)(NCCNCCc1ccc2c(c1)OCO2)c1cccc2cnccc12` [(1), N-[2-(3,4-methylenedioxyphenethylamino)ethyl]-5-isoquinolinesulfonamide]: the EC50 (Cavia porcellus) is 7.4 µM. Same read-out and setting: with `O=S(=O)(c1cccc2ncccc12)N1CCNCC1` [(59), 1-(5-quinolinesulfonyl)piperazine] the figure was 90 µM. Regarding `CCOc1ccc(S(=O)(=O)NCCNCCc2ccc(OC)c(OC)c2)c2cccnc12` [(19), N-[2-(3,4-dimethoxyphenethylamino)ethyl]-8-ethoxy-5-quinolinesulfonamide], the EC50 (Cavia porcellus) was determined as 125 µM. On to `CCOc1ccc(S(=O)(=O)NCCN2CCCN(CCc3ccc(OC)c(OC)c3)CC2)c2cccnc12` [(52), 1-(8-ethoxy-5-quinolinesulfonylaminoethyl)-4-(3,4-dioxyphenethyl)homopiperazine], for which the EC50 (Cavia porcellus) was determined as 102 µM.

For the compound `CCOc1ccc(S(=O)(=O)NCCNCc2ccc(OC)cc2)c2cccnc12` [(22), N-[2-(4-methoxybenzylamino)ethyl]-8-ethoxy-5-quinolinesulfonamide], the EC50 (Cavia porcellus) came to 131 µM. In the case of `COc1ccc(CCN2CCCN(CCNS(=O)(=O)c3ccc(Cl)c4ncccc34)CC2)cc1OC` [(42), 1-(8-chloro-5-quinolinesulfonylaminoethyl)-4-(3,4-dimethoxyphenethyl)homopiperazine], the EC50 (Cavia porcellus) was determined as 95 µM. On to `COc1ccc(CCNCCNS(=O)(=O)c2ccc(Cl)c3ncccc23)cc1` [(5), N-[2-(4-methoxyphenethylamino)ethyl]-8-chloro-5-quinolinesulfonamide], for which the EC50 (Cavia porcellus) was determined as 28 µM.

Regarding `O=S(=O)(NCCN1CCNCC1)c1ccc(Cl)c2ncccc12` [(37), 1-(8-chloro-5-quinolinesulfonylaminoethyl) piperazine], the EC50 (Cavia porcellus) was 48 µM. Take `O=S(=O)(NCCNCCc1ccc(Cl)cc1)c1ccc(Cl)c2ncccc12` [(6), N-[2-(4-chlorophenethylamino)ethyl]-8-chloro-5-quinolinesulfonamide]: where the note is “Cavia porcellus”, the EC50 came to 60 µM. As to “1-(1-hydroxy-5-isoquinolinesulfonylaminoethyl) piperazine hydrochloride [(32)]”, the EC50 is 27 µM.
